Data: patent US10273246B2, “Methods and compositions of substituted 5H-[1,2,5] oxadiazolo [3′,4′:5,6] pyrazino[2,3-B] indole analogs as inhibitors of β-catenin/T-cell factor protein-protein interactions” (University of Utah Research Foundation, priority 2015, dated 2019)
Like-named read-outs stand apart in the source and are kept apart here.

Assays:
SW480 cells = test: MTs cell viability assay, SW480; type: cell-based, human; details: for IC50: Homo sapiens, SW480, MTs cell viability, 72 h, read-out: IC50 ± SD SW480; for growth of SW480 cells: result in words, MTs
Method: (§1) Colorectal cancer cell lines, SW480, HT29, an HCT116, and human normal cell line HEK293 were seeded in 96-well plates at 4×10^3 cells/well, maintained overnight at 37° C., and incubated with the tested compounds at various concentrations. Cell viability was monitored after 72 h using a freshly prepared mixture of 1 part phenazine methosulfate (PMS, Sigma) solution (0.92 mg/mL) and 19 parts 3-(4,5-dimethylthiazol-2-yl)-5-(3-carboxymethoxyphenyl)-2-(4-sulfophenyl)-2H-tetrazolium (MTs, Promega) solution (2 mg/mL). Cells were incubated in 10 μL of this solution at 37° C. for 3 h, and A490 was measured. […] Experiments were performed in triplicate.

β-catenin/APC-R3 = molecular target: T1, β-catenin/APC-R3 (Homo sapiens, UniProt P35222); details: FP selectivity assay, known inhibitors, footnotes a, b; read-out: Ki ± SD β-catenin/APC-R3; cited from earlier work
T1 construct: Wild-type β-catenin and its mutants (residues 138-686) were cloned; 6xHis; made in house; host or cells: E. coli BL21 DE3
T1 sequence (P35222 138-686): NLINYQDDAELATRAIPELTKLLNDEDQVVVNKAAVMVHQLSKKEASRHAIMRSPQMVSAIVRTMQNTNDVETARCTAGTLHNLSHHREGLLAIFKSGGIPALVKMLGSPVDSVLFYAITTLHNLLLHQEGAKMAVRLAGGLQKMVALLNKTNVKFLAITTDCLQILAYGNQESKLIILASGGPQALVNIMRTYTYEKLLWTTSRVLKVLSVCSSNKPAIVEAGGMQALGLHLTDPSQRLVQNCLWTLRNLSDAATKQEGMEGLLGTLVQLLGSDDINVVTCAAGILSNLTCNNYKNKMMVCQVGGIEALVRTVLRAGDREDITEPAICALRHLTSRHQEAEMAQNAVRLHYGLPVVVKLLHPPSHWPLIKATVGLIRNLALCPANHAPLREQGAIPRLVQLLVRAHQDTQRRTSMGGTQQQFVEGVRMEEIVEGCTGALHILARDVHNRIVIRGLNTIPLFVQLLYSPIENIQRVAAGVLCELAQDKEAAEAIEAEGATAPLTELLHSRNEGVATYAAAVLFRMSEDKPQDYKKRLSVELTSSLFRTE

HCT116 cells = test: MTs cell viability assay, HCT116; type: cell-based, human; details: for IC50: Homo sapiens, HCT-116, MTs cell viability, 72 h, read-out: IC50 ± SD HCT116; for growth of HCT116 cells: result in words, MTs
Method: as §1

β-catenin/Tcf4 = molecular target: T2, β-catenin/Tcf4 (Homo sapiens, UniProt P35222); details: FP selectivity assay, known inhibitors, footnotes a, b; read-out: Ki ± SD β-catenin/Tcf4; cited from earlier work
T2 sequence (P35222 138-686): T1 sequence (P35222 138-686)

HT29 cells = test: MTs cell viability assay, HT29; type: cell-based; details: Homo sapiens, HT-29, 72 h, read-out: IC50 ± SD HT29
Method: as §1

[1] = system: FOPFlash luciferase (reporter with eight mutant Tcf binding sites); type: cell-based, human
Method: (§2) FuGENE 6 (E2962, Promega) in a 96-well plate format was used for the transfection of HEK293 and SW480 cells according to the manufacturer's instructions. […] SW480 cells were co-transfected with 60 ng of the TOPFlash or FOPFlash reporter gene and 40 ng pCMV-RL normalization reporter. Cells were cultured in DMEM and 10% fatal bovine serum at 37° C. for 24 h, and different concentrations of inhibitors were then added. After 24 h, the luciferase reporter activity was measured using the Dual-Glo system (E2940, Promega). Normalized luciferase activity in response to the treatment with the inhibitors was compared with that obtained from the cells treated with DMSO. Experiments were performed in triplicate.

β-catenin/Tcf4 PPI [2] = molecular target: T3, β-catenin/Tcf4 PPI (Homo sapiens, UniProt P35222); details: for inhibitory potency for the β-catenin/Tcf PPI in the biochemical assays: result in words, FP and AlphaScreen
T3 sequence (P35222 138-686): T1 sequence (P35222 138-686)
Excerpt: (§3) After β-catenin and fluorescein-Tcf4 form a protein-protein complex, the fluorophore is attached to a high-molecular-weight protein complex (≥60 kDa) and has a low rotational speed when it is excited by plane-polarized light. […] When an inhibitor completely disrupts the β-catenin/fluorescein-Tcf4 PPI, the fluorophore is only attached to Tcf4 (≤6 kDa), and the emitted light after excitation will be largely depolarized due to a high rotational speed of the fluorophore. AlphaScreen is a bead-based assay. […] On laser excitation at 680 nm, the photo sensitizers inside the donor beads convert ambient oxygen to a singlet oxygen state. Only when the donor and acceptor beads are brought within 200 nm can the singlet oxygen molecules diffuse to the acceptor beads, resulting in extensive emission at 570 nm.

[3] = system: canonical Wnt signaling in pcDNA3.1-β-catenin transfected HEK293 cells; test: TOPFlash luciferase reporter assay, HEK293; type: cell-based, human; details: for TOPFlash luciferase activity / transactivation of canonical Wnt signaling: result in words, Wnt-activated HEK293
Method: as §2

β-catenin/Tcf4 PPI [4] = molecular target: T3, β-catenin/Tcf4 PPI
Excerpt: as §3

β-catenin/Tcf4 PPI [5] = molecular target: T3, β-catenin/Tcf4 PPI; test: biochemical
Excerpt: as §3

[6] = system: Wnt/β-catenin target genes in SW480 cells
Method: Total RNAs were extracted with TRIzol (Ser. […] The threshold cycle (CT) values were normalized to that of internal reference GAPDH. The primer pairs for human GAPDH were forward: [NT] and reverse: [NT]; for human HPRT forward: [NT] and reverse: [NT]; for human AXIN2 forward: [NT] and reverse: [NT]; for human c-myc forward: [NT] and reverse: [NT]; and for human cyclin D1 forward: [NT] and reverse: [NT]. Experiments were performed in triplicate.

[7] = read-out: FP Ki ± SD, Table 6, fragments of 18
[8] = read-out: Ki ± SD FP, Table 8, resynthesized 18 and derivatives
[9] = read-out: Ki ± SD AlphaScreen, Table 8, resynthesized 18 and derivatives

COC1=C(C[C@H](C)O)C2c3c(c(O)cc4c3-c3c(cc(O)c5c3C2C(C[C@H](C)O)=C(OC)C5=O)OCO4)C1=O (stereo partly shown) [Compound 2]
IC50 (SW480 cells): 5.5 ± 1.3 µM | Ki (β-catenin/APC-R3): 130 ± 0.38 µM | IC50 (HCT116 cells): 1.2 ± 0.48 µM | Ki (β-catenin/Tcf4): 150 ± 19 µM | IC50 (HT29 cells): 1.8 ± 0.13 µM

CCc1ccc(-c2nc(CSCC(=O)NCCc3ccccc3)c(C)o2)cc1 [Compound 8, reference compound]
FOPFlash luciferase reporter activity ([1]; reference inhibitors): inhibited

O=C(O)c1ccc2nc(-c3ccc(Cl)cc3)c(-c3ccc(Cl)cc3)nc2c1 [Compound 15]
IC50 (SW480 cells): 38 ± 1.1 µM | IC50 (HCT116 cells): 22 ± 5.9 µM | IC50 (HT29 cells): 41 ± 1 µM

O=C(O)c1cc(-c2ccc(Oc3ccc(Cl)cc3)cc2)on1 [Compound 16]
IC50 (SW480 cells): > 400 µM | IC50 (HCT116 cells): > 400 µM | IC50 (HT29 cells): 430 ± 25 µM

O=C(O)c1cc2nc(-c3ccc4c(c3)OCO4)c(-c3ccc4c(c3)OCO4)nc2cc1O [Compound 17]
IC50 (SW480 cells): 110 ± 21 µM | Ki (β-catenin/Tcf4 PPI [2]; read-out: Ki + SD FP, Table 3, purchased screening hits): 8.7 ± 1 µM | IC50 ([3]; Homo sapiens, pcDNA3.1-β-catenin transfected HEK293, 24 h, read-out: TOPFlash IC50 ± SD Wnt-activated HEK293): > 100 µM | IC50 (HCT116 cells): 250 ± 21 µM | Ki (β-catenin/Tcf4 PPI [4]; read-out: Ki + SD AlphaScreen, Table 3, purchased screening hits): 12 ± 0.78 µM | IC50 (HT29 cells): 300 µM

O=C1c2ccccc2-c2nc3nonc3nc21 [Compound 19B, 9H-Indeno[1,2-B][1,2,5]Oxadiazolo[3,4-E]Pyrazin-9-One]
Ki (β-catenin/Tcf4 PPI [2]; [7]): 310 ± 11 µM | inhibitory potency for the β-catenin/Tcf PPI in the biochemical assays (β-catenin/Tcf4 PPI [2]): some inhibitory activities

N/N=C1/c2ccccc2-c2nc3nonc3nc21 [Compound 20, (Z)-9-Hydrazono-9H-Indeno[1,2-B][1,2,5]Oxadiazolo[3,4-E]Pyrazine]
Ki (β-catenin/Tcf4 PPI [2]; [7]): 230 ± 6.2 µM

NC(=S)N/N=C1/c2ccccc2-c2nc3nonc3nc21 [Compound 21]
Ki (β-catenin/Tcf4 PPI [2]; [7]): 240 ± 4.6 µM | inhibitory potency for the β-catenin/Tcf PPI in the biochemical assays (β-catenin/Tcf4 PPI [2]): some inhibitory activities

NC(=O)c1nonc1N [Compound 22]
Ki (β-catenin/Tcf4 PPI [5]): > 2000 µM

Nc1nonc1C(=O)N1CCCC1 [Compound 23]
Ki (β-catenin/Tcf4 PPI [2]; [7]): 1700 ± 28 µM | inhibitory potency for the β-catenin/Tcf PPI in the biochemical assays (β-catenin/Tcf4 PPI [2]): some inhibitory activities

CC(C)CNC(=O)c1nonc1N [Compound 24]
Ki (β-catenin/Tcf4 PPI [5]): > 2000 µM

Nc1nonc1C(=O)NCc1ccccc1 [Compound 25]
Ki (β-catenin/Tcf4 PPI [2]; [7]): 1700 ± 37 µM | inhibitory potency for the β-catenin/Tcf PPI in the biochemical assays (β-catenin/Tcf4 PPI [2]): some inhibitory activities

Nc1nonc1NC(=O)Cn1c2ccccc2c2nc3nonc3nc21 [Compound 26, 2-(5H-[1,2,5]Oxadiazolo[3′,4′:5,6]Pyrazino[2,3-B]Indol-5-yl)-N-(4-Amino-1,2,5-Oxadiazol-3-yl)Acetamide]
growth of SW480 cells (SW480 cells): did not exhibit the inhibitory activities | TOPFlash luciferase activity / transactivation of canonical Wnt signaling [3]: did not inhibit | growth of HCT116 cells (HCT116 cells): did not exhibit the inhibitory activities

c1ccc2c(c1)[nH]c1nc3nonc3nc12 [Compound 27, 5H-[1,2,5]Oxadiazolo[3′,4′:5,6]Pyrazino[2,3-B]Indole]
Ki (β-catenin/Tcf4 PPI [2]; [8]): 280 ± 12 µM | inhibitory potency for the β-catenin/Tcf PPI in the biochemical assays (β-catenin/Tcf4 PPI [2]): poor inhibitory potency | Ki (β-catenin/Tcf4 PPI [4]; [9]): 120 ± 8.7 µM

COC(=O)CCn1c2ccccc2c2nc3nonc3nc21 [Compound 30, Methyl 3-(5H-[1,2,5]Oxadiazolo[3′,4′:5,6]Pyrazino[2,3-B]Indol-5-yl)Propanoate]
growth of SW480 cells (SW480 cells): did not exhibit the inhibitory activities | growth of HCT116 cells (HCT116 cells): did not exhibit the inhibitory activities

CCOC(=O)CCCn1c2ccccc2c2nc3nonc3nc21 [Compound 32, Ethyl 4-(5H-[1,2,5]Oxadiazolo[3′,4′:5,6]Pyrazino[2,3-B]Indol-5-yl)Butanoate]
growth of SW480 cells (SW480 cells): did not exhibit the inhibitory activities | growth of HCT116 cells (HCT116 cells): did not exhibit the inhibitory activities

O=C(O)CCCn1c2ccccc2c2nc3nonc3nc21 [Compound 33, 4-(5H-[1,2,5]Oxadiazolo[3′,4′:5,6]Pyrazino[2,3-B]Indol-5-yl)Butanoic Acid]
growth of SW480 cells (SW480 cells): did not exhibit the inhibitory activities | TOPFlash luciferase activity / transactivation of canonical Wnt signaling [3]: did not inhibit | growth of HCT116 cells (HCT116 cells): did not exhibit the inhibitory activities

N#CCCCn1c2ccccc2c2nc3nonc3nc21 [Compound 36, 4-(5H-[1,2,5]Oxadiazolo[3′,4′:5,6]Pyrazino[2,3-B]Indol-5-yl)Butanenitrile]
Ki (β-catenin/Tcf4 PPI [2]; [8]): 160 ± 8.9 µM | Ki (β-catenin/Tcf4 PPI [4]; [9]): 120 ± 4.2 µM

c1ccc2c(c1)c1nc3nonc3nc1n2CCc1nnn[nH]1 [Compound 37, 5-(2-(2H-Tetrazol-5-yl)Ethyl)-5H-[1,2,5]Oxadiazolo[3′,4′:5,6]Pyrazino[2,3-B]Indole]
IC50 (SW480 cells): 20 µM | TOPFlash luciferase activity / transactivation of canonical Wnt signaling [3]: suppressed the TOPFlash luciferase activity in a dose-dependent manner | FOPFlash luciferase activity ([1]; even at 200 μM, pcDNA3.1-β-catenin transfected HEK293): did not affect | expression of house-keeping gene HPRT ([6]; SW480): did not affect | expression of AXIN2, cyclin D1, and c-myc (mRNA) ([6]; SW480, dose-dependent): down-regulated
